Drawing on patent publication US6288261A, “Inhibitors of matrix metalloproteinases” (Abbott Laboratories, priority 1999, dated 2001), this text covers IC50 for nine compounds.

Structures are written as SMILES.

This assay deals with T1, recombinant truncated stromelysin (human sequence) (Homo sapiens, UniProt P08254).
T1 construct: made in house; host or cells: E. coli
Put plainly: Determination of Stromelysin Inhibition. It is filed as biochemical. To be noted: recombinant truncated human stromelysin produced in E. coli. The method, then: Determination of Stromelysin Inhibition
The efficacy of the compounds of this invention as matrix metalloproteinase inhibitors was determined by measuring the inhibition of stromelysin. The inhibition of stromelysin by the compounds of this invention was determined as follows: recombinant truncated stromelysin (human sequence) produced in E. coli was prepared by expression and purification of the protein as described by Ye et al, Biochemistry, 1992, 31, 11231-11235. The IC50 values were determined as described in Steiman et al, Bioorganic and Medicinal Chemistry Letters, (1998), 8, 2087-2092 (footnote 13).

T1 sequence (P08254 100-273 limits assumed): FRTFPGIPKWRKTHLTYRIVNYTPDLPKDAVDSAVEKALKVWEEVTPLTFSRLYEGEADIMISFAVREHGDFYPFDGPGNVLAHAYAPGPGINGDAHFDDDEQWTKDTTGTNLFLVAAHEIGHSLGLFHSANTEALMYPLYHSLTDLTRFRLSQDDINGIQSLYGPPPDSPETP

What is called IC50 is the point on the concentration scale where inhibition reaches its midpoint. In the case of `O=C(NO)c1c(CCOc2ccc(-c3ccc(Cl)cc3)cc2)ccc2ccccc12` [Example 1, 2-[2-[(4'-chloro[1,1'-biphenvyl]-4-vl)oxy]eyl]-N-hydroxy-1-naphthalenecarboxamide], the concentration for half-maximal inhibition (IC50) amounted to 640 nM.

`O=C(NO)c1c(OCCS(=O)(=O)c2ccc(-c3ccc(Cl)cc3)cc2)ccc2ccccc12` [Example 6, 2-[[2-(4'-chloro[1,1'-biphenyl]-4-yl)sulfonyl]ethoxy]-N-hydroxy-1-naphthalenecarboxamide]: the IC50 was determined as 670 nM.

With `COc1ccc(-c2ccc(S(=O)(=O)CCOc3ccc4ccccc4c3C(=O)NO)cc2)cc1` [Example 7, N-hydroxy-2-[2-[(4'-methoxy[1,1'-biphenyl]-4-vl)sulfonyl]ethoxy]-1-naphthalenecarboxamide], the IC50 was 460 nM.

As to `O=C(NO)c1c(CCS(=O)(=O)c2ccc(-c3ccc(Cl)cc3)cc2)ccc2ccccc12` [Example 8, 2-[2-[(4'-chloro[1,1'-biphenyl]-4-yl)sulfonyl]ethyl]-N-hydroxy-1-naphthalenecarboxamide], the IC50 was found to be 3700 nM.

As for `O=C(NO)c1c(CNS(=O)(=O)c2ccc(-c3ccc(OC(F)(F)F)cc3)cc2)ccc2ccccc12` [Example 9], the IC50 is 690 nM.

For `COc1ccc(-c2ccc(S(=O)(=O)CCCc3ccc4ccccc4c3C(=O)NO)cc2)cc1` [Example 10, N-hydroxy-2-[3-[(4'-methoxy[1,1'-biphenyl]-4-yl)sulfonyl]propyl]-1-naphthalenecarboxamide], the IC50 was determined as 400 nM.

As to `COc1ccc(-c2ccc(C(=O)CCCc3ccc4ccccc4c3C(=O)NO)cc2)cc1` [Example 11, N-hydroxy-2-[4-(4'-methoxy[1,1'-biphenyl]-4-yl)-4-oxobutyl]-1-naphthalenecarboxamide], the IC50 is 1500 nM.

Regarding `COc1ccc(-c2ccc(C(=O)CCc3ccc4ccccc4c3C(=O)NO)cc2)cc1` [Example 12, N-hydroxy-2-[3-(4'-methoxy[1,1'-biphenyl]-4-yl)-3-oxopropyl]-1-naphthalenecarboxamide], the IC50 is 450 nM.

Consider `N#CCc1cccc(-c2ccc(S(=O)(=O)CCOc3ccc4ccccc4c3C(=O)NO)cc2)c1` [Example 13], for which the IC50 worked out at 62 nM.
